According to ChEMBL document CHEMBL1811917 (J Med Chem, 2011):

How the values were obtained:
Arginase-1 [1] = target: T1, Arginase-1 (Homo sapiens, UniProt P05089); experiment: Binding affinity to human arginase 1 using L-arginine as substrate by surface plasmon resonance assay
T1 sequence (P05089 whole entry): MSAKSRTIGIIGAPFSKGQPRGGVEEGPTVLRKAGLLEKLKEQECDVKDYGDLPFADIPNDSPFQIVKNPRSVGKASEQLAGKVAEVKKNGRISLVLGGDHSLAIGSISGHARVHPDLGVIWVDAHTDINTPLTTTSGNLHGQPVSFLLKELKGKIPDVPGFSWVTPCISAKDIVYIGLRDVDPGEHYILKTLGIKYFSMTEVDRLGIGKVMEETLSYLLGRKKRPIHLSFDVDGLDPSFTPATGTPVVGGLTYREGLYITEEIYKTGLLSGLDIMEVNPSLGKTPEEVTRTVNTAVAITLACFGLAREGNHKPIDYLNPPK

Arginase [2] = target: T2, Arginase (Plasmodium falciparum, UniProt Q8I384); experiment: Inhibition of Plasmodium falciparum arginase using L-arginine as substrate by colorimetric assay
T2 sequence (Q8I384 whole entry): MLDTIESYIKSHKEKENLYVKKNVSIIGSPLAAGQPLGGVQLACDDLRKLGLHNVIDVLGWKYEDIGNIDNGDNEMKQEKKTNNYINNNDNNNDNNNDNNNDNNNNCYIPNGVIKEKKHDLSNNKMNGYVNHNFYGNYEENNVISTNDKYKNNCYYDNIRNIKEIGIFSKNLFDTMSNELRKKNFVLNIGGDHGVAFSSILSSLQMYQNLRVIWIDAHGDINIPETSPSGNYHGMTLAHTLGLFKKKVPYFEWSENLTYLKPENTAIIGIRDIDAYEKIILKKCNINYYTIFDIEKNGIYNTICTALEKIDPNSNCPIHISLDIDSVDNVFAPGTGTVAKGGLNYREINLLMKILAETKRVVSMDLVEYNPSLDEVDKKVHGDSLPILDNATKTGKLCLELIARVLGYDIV

Arginase [3] = target: T2, Arginase; experiment: Binding affinity to Plasmodium falciparum arginase
[4] = target: T3, Arginase-2, mitochondrial (Homo sapiens, UniProt P78540); experiment: Binding affinity to human arginase 2
T3 sequence (P78540 whole entry): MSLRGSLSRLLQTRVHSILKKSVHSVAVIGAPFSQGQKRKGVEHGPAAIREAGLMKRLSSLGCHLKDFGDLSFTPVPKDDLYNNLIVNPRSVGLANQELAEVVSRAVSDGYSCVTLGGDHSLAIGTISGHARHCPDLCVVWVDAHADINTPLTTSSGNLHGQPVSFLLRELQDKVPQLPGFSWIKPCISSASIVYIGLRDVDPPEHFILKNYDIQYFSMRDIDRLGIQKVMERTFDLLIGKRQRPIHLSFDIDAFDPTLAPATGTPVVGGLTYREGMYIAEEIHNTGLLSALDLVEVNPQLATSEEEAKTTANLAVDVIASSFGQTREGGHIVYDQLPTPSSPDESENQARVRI

Arginase-1 [5] = target: T1, Arginase-1; experiment: Binding affinity to human arginase 1

| Kd (Arginase-1 [1]) [µM] | Compound | Ki (Arginase [2]) [µM] | Kd (Arginase [3]) [µM] | Ki [4] [µM] | Kd (Arginase-1 [5]) [µM] |
| --- | --- | --- | --- | --- | --- |
| 34 | NC(CCCCB(O)O)(C(=O)O)C(F)F (racemic) |  |  |  |  |
| 0.88 | CC(N)(CCCCB(O)O)C(=O)O (racemic) | 260 |  |  |  |

| Compound | Kd (Arginase-1 [1]) [µM] | Ki (Arginase [2]) [µM] | Kd (Arginase [3]) [µM] | Ki [4] [µM] | Kd (Arginase-1 [5]) [µM] |
| --- | --- | --- | --- | --- | --- |
| N[C@@H](CCCCB(O)O)C(=O)O | 0.018 | 10 | 11 | 0.0085 | 0.005 |
